Test results as given in ChEMBL document CHEMBL3632469, “Discovery of dihydroquinazolinone derivatives as potent, selective, and CNS-penetrant M(1) and M(4) muscarinic acetylcholine receptors agonists” (Bioorg Med Chem Lett, 2015).

How the values were obtained:
[1] = molecular target: Beta-2 adrenergic receptor (Homo sapiens) (UniProt P07550); assay: Agonist activity at adrenergic beta2 receptor (unknown origin) expressed in CHO cells assessed as calcium mobilization at 3 uM; assay type: functional, cell-based
[2] = molecular target: D(4) dopamine receptor (Homo sapiens) (UniProt P21917); assay: Agonist activity at dopamine D4 receptor (unknown origin) expressed in CHO cells assessed as calcium mobilization at 3 uM; assay type: functional, cell-based
[3] = molecular target: 5-hydroxytryptamine receptor 1F (Homo sapiens) (UniProt P30939); assay: Antagonist activity at 5-HT1F receptor (unknown origin) expressed in CHO cells assessed as calcium mobilization at 3 uM; assay type: functional, cell-based
[4] = molecular target: T1, Muscarinic acetylcholine receptor M2 (Homo sapiens) (UniProt P08172); assay: Agonist activity at human muscarinic M2 acetylcholine receptor expressed in CHO cells co-expressing Galpha16 assessed as calcium mobilization at 30 uM by FLIPR assay; assay type: functional, cell-based
T1 sequence (whole entry): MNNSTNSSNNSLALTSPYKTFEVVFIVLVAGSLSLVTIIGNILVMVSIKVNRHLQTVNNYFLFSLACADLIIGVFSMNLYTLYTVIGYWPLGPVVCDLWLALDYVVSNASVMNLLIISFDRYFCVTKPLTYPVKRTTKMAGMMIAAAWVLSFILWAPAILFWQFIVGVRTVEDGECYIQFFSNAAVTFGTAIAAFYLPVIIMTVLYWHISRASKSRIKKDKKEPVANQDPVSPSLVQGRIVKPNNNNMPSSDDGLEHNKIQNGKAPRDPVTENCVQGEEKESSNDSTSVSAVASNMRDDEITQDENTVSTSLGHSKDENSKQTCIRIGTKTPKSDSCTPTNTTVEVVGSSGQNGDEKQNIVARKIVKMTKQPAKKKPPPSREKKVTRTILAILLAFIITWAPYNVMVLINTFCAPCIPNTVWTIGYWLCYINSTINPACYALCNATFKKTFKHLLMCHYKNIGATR

[5] = molecular target: Adenosine receptor A2a (Homo sapiens) (UniProt P29274); assay: Agonist activity at adenosine a2a receptor (unknown origin) expressed in CHO cells assessed as calcium mobilization at 3 uM; assay type: functional, cell-based
[6] = molecular target: T2, Muscarinic acetylcholine receptor M1 (Homo sapiens) (UniProt P11229); assay: Agonist activity at human muscarinic M1 acetylcholine receptor expressed in CHO cells assessed as calcium mobilization by FLIPR assay relative to control; assay type: functional, cell-based
T2 sequence (whole entry): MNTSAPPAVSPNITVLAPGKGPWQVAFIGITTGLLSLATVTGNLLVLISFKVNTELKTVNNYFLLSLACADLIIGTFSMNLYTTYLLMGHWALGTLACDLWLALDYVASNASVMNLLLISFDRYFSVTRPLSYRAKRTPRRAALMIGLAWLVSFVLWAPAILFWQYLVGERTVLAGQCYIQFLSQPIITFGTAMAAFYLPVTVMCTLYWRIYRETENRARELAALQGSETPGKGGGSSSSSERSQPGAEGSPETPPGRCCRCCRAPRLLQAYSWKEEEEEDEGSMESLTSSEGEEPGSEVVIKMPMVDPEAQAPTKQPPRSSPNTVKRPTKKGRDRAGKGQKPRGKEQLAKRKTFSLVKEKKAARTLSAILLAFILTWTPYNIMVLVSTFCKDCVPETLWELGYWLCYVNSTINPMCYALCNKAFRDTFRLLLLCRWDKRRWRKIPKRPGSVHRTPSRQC

[7] = molecular target: T3, Muscarinic acetylcholine receptor M4 (Homo sapiens) (UniProt P08173); assay: Partial agonist activity at human muscarinic M4 acetylcholine receptor expressed in CHO cells co-expressing Galpha16 assessed as calcium mobilization at 30 uM by FLIPR assay; assay type: functional, cell-based
T3 sequence (whole entry): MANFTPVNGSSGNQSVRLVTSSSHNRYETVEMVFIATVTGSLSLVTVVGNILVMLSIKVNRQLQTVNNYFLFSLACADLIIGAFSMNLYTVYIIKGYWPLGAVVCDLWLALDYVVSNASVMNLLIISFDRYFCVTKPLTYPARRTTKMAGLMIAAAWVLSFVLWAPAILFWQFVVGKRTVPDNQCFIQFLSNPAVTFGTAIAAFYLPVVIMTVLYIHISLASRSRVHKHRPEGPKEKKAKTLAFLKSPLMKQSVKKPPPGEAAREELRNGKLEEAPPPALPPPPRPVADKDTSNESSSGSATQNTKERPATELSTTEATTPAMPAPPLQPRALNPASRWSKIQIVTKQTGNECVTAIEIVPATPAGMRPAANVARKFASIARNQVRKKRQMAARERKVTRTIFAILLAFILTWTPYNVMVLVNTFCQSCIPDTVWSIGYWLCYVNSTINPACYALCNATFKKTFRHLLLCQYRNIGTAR

[8] = molecular target: Histamine H3 receptor (Homo sapiens) (UniProt Q9Y5N1); assay: Agonist activity at histamine H3 receptor (unknown origin) expressed in CHO cells assessed as calcium mobilization at 3 uM; assay type: functional, cell-based
[9] = molecular target: 5-hydroxytryptamine receptor 1E (Homo sapiens) (UniProt P28566); assay: Antagonist activity at 5-HT1E receptor (unknown origin) expressed in CHO cells assessed as calcium mobilization at 3 uM; assay type: functional, cell-based
[10] = molecular target: D(4) dopamine receptor (Homo sapiens) (UniProt P21917); assay: Antagonist activity at dopamine D4 receptor (unknown origin) expressed in CHO cells assessed as calcium mobilization at 3 uM; assay type: functional, cell-based
[11] = molecular target: Alpha-2C adrenergic receptor (Homo sapiens) (UniProt P18825); assay: Antagonist activity at adrenergic a2C receptor (unknown origin) expressed in CHO cells assessed as calcium mobilization at 3 uM; assay type: functional, cell-based
[12] = molecular target: Endothelin-1 receptor (Homo sapiens) (UniProt P25101); assay: Agonist activity at endothelin a receptor (unknown origin) expressed in CHO cells assessed as calcium mobilization at 3 uM; assay type: functional, cell-based
[13] = molecular target: Alpha-2C adrenergic receptor (Homo sapiens) (UniProt P18825); assay: Agonist activity at adrenergic a2C receptor (unknown origin) expressed in CHO cells assessed as calcium mobilization at 3 uM; assay type: functional, cell-based
[14] = molecular target: Muscarinic acetylcholine receptor M4 (Homo sapiens, UniProt P08173); assay: Partial agonist activity at human muscarinic M4 acetylcholine receptor expressed in CHO cells co-expressing Galpha16 assessed as calcium mobilization by FLIPR assay; assay type: functional, cell-based
[15] = molecular target: Aryl hydrocarbon receptor (Homo sapiens, UniProt P35869); assay: Induction of human AhR
[16] = molecular target: Nuclear receptor subfamily 1 group I member 2 (Homo sapiens, UniProt O75469); assay: Induction of human PXR; assay type: ADME
[17] = molecular target: Muscarinic acetylcholine receptor M3 (Homo sapiens) (UniProt P20309); assay: Agonist activity at human muscarinic M3 acetylcholine receptor expressed in CHO cells assessed as calcium mobilization at 0.3 uM by FLIPR assay; assay type: functional, cell-based
Sequence of Muscarinic acetylcholine receptor M3 (Homo sapiens) (P20309 whole entry, looked up): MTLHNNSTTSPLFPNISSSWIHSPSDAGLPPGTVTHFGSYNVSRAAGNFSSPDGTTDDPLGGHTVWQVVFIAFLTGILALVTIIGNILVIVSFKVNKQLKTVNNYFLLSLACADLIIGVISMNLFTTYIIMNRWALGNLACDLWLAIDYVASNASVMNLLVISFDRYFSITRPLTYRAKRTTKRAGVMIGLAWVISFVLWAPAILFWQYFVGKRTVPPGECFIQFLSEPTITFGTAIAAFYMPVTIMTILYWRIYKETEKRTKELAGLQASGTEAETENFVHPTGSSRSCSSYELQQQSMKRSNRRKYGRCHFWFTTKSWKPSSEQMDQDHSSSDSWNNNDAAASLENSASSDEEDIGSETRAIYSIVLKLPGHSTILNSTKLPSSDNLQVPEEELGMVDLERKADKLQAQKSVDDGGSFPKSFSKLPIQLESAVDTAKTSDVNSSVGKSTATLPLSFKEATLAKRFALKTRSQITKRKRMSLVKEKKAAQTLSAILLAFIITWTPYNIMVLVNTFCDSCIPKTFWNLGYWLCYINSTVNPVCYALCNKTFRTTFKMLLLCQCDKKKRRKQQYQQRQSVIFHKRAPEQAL

Sequence of D(4) dopamine receptor (Homo sapiens) (P21917 whole entry): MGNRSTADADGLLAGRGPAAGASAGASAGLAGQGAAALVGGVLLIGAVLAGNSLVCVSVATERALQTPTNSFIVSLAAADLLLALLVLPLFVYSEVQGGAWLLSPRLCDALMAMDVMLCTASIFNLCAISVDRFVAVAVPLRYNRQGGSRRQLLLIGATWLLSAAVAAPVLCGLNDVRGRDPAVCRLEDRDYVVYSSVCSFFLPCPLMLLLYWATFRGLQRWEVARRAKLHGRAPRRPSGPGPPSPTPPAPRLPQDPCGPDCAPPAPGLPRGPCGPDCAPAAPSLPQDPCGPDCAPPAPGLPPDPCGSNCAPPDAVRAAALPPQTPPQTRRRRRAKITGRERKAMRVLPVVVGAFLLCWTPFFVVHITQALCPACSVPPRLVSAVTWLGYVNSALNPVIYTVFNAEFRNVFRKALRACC
Sequence of Alpha-2C adrenergic receptor (Homo sapiens) (P18825 whole entry): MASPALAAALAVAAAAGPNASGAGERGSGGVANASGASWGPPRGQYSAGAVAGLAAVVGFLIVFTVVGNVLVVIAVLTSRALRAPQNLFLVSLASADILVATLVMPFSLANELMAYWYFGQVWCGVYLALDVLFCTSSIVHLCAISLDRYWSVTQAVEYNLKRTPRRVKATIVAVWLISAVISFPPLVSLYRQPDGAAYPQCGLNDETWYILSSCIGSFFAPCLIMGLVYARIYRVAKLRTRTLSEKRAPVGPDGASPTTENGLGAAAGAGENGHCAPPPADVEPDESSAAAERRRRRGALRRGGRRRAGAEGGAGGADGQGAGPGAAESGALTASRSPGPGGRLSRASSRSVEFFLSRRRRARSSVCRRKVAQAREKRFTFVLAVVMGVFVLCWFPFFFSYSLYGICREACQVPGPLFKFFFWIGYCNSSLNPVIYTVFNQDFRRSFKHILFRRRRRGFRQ
Sequence of Aryl hydrocarbon receptor (P35869 whole entry): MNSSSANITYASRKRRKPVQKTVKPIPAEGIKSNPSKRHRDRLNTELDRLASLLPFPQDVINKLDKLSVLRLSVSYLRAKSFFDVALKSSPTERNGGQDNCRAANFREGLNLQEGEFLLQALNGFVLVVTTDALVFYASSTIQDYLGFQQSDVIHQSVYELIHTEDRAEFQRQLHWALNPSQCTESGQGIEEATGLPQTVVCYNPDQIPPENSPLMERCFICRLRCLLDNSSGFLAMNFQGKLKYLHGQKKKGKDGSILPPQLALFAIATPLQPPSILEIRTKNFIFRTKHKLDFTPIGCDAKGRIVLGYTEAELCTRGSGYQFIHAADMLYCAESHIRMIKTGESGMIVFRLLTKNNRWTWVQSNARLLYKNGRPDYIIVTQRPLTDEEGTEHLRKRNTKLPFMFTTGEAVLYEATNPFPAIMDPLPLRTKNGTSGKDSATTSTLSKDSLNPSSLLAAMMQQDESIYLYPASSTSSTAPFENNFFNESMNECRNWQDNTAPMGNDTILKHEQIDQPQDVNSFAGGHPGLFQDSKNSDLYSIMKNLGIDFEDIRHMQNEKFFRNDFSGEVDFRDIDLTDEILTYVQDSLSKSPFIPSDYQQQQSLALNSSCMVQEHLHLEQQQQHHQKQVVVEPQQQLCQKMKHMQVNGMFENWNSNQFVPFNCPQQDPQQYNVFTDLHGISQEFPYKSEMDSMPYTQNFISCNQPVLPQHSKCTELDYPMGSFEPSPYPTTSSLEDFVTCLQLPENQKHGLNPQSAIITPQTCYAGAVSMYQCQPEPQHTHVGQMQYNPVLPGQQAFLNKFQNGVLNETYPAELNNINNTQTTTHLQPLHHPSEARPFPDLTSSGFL
Sequence of Histamine H3 receptor (Homo sapiens) (Q9Y5N1 whole entry): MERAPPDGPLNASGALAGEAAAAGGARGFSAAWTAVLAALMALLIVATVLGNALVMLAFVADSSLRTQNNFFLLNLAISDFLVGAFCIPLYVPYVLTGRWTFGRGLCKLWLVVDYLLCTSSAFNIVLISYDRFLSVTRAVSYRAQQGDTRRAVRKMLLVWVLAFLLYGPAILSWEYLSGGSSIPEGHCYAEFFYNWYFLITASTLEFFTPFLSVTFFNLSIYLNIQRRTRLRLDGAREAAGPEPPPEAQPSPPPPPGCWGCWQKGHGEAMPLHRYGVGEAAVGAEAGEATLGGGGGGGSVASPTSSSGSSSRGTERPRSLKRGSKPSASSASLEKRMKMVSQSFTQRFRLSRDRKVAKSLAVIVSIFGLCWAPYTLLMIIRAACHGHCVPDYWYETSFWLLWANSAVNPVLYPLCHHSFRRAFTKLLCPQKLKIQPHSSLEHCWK
Sequence of Endothelin-1 receptor (Homo sapiens) (P25101 whole entry): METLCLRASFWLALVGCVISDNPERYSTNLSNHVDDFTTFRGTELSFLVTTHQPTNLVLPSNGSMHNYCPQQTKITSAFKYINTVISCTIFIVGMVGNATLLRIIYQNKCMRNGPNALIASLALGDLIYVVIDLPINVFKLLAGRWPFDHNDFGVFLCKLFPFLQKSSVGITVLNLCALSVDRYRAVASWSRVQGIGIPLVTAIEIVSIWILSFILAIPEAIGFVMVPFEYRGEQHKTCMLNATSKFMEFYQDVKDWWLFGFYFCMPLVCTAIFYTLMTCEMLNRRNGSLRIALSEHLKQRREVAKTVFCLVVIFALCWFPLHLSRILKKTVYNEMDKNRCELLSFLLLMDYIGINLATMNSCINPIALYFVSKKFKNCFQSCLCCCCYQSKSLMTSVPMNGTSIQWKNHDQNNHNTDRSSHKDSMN
Sequence of 5-hydroxytryptamine receptor 1F (Homo sapiens) (P30939 whole entry): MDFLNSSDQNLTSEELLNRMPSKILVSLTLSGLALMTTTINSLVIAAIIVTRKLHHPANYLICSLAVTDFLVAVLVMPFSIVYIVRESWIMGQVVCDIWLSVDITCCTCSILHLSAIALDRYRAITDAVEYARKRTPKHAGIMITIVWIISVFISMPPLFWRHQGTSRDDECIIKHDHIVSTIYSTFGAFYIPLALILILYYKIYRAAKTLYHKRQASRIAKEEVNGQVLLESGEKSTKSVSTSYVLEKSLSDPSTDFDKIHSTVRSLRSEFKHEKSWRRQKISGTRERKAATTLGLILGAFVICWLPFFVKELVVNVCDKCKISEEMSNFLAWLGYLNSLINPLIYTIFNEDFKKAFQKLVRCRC
Sequence of Nuclear receptor subfamily 1 group I member 2 (O75469 whole entry): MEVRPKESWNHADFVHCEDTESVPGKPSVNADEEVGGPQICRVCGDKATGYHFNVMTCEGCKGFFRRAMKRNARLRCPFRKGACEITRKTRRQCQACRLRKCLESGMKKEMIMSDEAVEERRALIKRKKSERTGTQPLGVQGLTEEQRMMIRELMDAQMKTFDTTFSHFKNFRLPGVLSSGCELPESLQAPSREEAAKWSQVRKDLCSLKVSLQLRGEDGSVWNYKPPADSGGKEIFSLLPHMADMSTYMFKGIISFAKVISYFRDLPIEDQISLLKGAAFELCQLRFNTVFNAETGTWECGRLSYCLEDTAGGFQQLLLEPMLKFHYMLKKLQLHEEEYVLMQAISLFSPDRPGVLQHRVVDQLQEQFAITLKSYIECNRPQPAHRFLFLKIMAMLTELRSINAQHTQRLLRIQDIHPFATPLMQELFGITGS
Sequence of 5-hydroxytryptamine receptor 1E (Homo sapiens) (P28566 whole entry): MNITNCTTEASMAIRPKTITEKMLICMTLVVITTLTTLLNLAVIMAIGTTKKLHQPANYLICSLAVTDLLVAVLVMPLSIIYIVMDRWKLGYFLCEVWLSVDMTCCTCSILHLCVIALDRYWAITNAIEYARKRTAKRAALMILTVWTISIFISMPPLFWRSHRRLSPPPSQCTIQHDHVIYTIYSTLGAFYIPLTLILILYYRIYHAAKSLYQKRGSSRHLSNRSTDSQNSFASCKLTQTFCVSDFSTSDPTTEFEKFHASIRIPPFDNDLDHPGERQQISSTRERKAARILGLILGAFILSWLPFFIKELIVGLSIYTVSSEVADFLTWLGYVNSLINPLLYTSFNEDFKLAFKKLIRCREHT
Sequence of Adenosine receptor A2a (Homo sapiens) (P29274 whole entry): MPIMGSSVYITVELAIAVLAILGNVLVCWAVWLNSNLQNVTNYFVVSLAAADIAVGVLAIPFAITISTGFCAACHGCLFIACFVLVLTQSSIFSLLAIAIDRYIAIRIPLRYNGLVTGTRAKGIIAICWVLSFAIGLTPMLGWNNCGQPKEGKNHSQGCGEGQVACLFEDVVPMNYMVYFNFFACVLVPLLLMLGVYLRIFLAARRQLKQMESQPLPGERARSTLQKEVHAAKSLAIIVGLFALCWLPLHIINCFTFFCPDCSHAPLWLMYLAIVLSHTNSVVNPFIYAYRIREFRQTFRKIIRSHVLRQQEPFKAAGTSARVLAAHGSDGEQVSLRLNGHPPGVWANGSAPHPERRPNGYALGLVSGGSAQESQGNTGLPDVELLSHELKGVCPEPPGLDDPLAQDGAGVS

SMILES: CCOC(=O)N1[C@@H]2CC[C@H]1C[C@H](CN1CC[C@@H](N3Cc4ccccc4NC3=O)C1)C2
- Activity [1]: -0.21%
- Activity [2]: -0.14%
- inhibition [3]: 1.04%
- Activity [4]: 3%
- Activity [5]: 0.38%
- Activity [6]: 84%
- Activity [7]: 51%
- Activity [8]: -0.38%
- inhibition [9]: -0.04%
- inhibition [10]: 11.6%
- inhibition [11]: 6.45%
- Activity [12]: 0.27%
- Activity [13]: -0.89%
- EC50 [14]: 0.086 µM
- Activity [15]: Not Active
- Activity [16]: Not Active
- Activity [17]: 2%
